Like-named read-outs stand apart in the source and are kept apart here.
How the values were obtained:
Assay in all cases: SelectScreen kinase assay
DYRK2 = biological target: T1, DYRK2 (Homo sapiens, UniProt Q92630); details: for Inhibition at 1 µM (%): DYRK2, LanthaScreen Binding
T1 sequence (Q92630 1-601): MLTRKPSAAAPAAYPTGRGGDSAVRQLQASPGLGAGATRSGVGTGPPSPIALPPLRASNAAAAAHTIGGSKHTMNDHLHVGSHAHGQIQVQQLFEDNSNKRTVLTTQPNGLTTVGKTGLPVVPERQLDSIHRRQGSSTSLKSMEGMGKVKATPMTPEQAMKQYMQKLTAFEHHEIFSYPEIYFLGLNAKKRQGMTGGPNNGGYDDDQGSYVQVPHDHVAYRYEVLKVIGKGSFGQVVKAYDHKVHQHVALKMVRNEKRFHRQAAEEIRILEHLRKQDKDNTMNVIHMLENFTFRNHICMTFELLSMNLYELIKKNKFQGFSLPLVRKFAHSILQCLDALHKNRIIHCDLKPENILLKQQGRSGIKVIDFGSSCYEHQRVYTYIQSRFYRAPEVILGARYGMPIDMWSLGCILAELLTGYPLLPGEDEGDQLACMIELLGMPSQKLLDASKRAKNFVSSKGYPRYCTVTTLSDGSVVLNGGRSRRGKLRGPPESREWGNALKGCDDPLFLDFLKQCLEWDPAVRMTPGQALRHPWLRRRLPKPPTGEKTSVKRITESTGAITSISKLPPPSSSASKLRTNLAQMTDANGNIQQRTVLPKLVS
Method: (§1) Selectivity profiling assays were performed by the Invitrogen SelectScreen™ Services. […] The concentration of ATP was selected to be equal to the KM, unless indicated otherwise.

MAPK15 (ERK7) = biological target: T2, MAPK15 (ERK7) (Homo sapiens, UniProt Q8TD08)
T2 sequence (Q8TD08 1-544): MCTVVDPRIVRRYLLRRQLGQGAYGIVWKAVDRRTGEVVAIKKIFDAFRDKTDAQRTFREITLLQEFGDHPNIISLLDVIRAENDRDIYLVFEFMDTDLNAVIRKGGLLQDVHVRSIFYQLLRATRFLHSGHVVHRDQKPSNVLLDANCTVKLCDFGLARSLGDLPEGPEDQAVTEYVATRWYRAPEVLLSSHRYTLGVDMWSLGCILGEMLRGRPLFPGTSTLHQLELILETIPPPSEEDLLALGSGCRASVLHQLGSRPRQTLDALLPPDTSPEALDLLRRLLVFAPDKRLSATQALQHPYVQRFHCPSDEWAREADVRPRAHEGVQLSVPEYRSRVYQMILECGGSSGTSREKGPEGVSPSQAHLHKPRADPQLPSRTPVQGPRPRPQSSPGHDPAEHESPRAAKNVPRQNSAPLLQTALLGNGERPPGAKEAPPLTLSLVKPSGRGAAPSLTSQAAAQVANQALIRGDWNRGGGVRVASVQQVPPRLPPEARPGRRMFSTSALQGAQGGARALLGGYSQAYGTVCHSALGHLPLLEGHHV
Method: as §1

PKN2 (PRK2) = PKN2 (PRK2) (Homo sapiens, UniProt Q16513)
PKN2 (PRK2), sequence (Q16513 whole entry): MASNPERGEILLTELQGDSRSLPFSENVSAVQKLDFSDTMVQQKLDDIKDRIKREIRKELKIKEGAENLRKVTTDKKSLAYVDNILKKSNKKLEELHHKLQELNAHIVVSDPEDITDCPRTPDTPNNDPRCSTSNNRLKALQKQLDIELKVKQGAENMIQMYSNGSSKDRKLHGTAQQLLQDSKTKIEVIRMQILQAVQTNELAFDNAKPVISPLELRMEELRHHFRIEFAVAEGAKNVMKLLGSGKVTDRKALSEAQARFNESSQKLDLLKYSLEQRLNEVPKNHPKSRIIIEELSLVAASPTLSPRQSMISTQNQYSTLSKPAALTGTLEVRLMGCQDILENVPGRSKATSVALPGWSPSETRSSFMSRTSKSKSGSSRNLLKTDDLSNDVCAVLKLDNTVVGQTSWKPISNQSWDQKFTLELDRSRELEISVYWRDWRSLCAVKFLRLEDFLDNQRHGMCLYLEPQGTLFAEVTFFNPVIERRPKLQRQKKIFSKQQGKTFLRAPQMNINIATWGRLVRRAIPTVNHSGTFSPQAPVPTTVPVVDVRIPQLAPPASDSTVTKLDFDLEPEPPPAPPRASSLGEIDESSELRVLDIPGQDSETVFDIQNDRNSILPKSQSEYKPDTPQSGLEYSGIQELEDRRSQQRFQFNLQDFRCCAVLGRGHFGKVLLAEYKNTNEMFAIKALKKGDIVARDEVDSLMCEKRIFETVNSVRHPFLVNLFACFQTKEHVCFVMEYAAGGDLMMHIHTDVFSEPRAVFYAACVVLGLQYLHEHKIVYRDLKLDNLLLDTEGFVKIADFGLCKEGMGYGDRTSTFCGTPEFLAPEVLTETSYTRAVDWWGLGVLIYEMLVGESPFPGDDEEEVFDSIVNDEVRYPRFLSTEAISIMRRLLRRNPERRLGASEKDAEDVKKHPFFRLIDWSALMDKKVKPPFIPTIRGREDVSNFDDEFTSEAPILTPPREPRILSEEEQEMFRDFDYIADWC
Method: as §1

PRKD2 (PKD2) = biological target: T3, PRKD2 (PKD2) (Homo sapiens, UniProt Q9BZL6); details: for Inhibition at 1 µM (%): ZLYTE, ATP Km app
T3 sequence (Q9BZL6 1-878): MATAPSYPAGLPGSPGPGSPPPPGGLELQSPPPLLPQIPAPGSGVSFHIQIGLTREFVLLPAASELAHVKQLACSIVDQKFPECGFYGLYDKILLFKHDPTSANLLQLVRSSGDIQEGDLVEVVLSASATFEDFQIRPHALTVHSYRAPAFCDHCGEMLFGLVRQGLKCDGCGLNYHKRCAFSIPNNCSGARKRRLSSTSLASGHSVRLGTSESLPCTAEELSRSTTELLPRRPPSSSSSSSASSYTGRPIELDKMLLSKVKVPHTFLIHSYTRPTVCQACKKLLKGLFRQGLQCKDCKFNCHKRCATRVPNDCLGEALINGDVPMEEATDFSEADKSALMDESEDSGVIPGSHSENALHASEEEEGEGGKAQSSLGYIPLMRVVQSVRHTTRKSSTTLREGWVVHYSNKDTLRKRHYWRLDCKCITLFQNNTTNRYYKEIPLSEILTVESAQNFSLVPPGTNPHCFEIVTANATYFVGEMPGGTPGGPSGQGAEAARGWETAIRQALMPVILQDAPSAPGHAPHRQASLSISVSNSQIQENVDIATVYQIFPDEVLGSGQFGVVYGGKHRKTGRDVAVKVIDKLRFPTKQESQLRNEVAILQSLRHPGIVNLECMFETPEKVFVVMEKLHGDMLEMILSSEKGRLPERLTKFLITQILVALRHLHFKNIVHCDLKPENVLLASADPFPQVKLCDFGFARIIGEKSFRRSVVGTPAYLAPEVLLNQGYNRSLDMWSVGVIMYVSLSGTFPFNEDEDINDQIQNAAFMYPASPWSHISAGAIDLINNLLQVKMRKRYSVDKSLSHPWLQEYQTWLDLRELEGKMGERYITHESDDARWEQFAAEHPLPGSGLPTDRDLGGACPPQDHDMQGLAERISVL
Method: as §1

TESK1 = TESK1 (Homo sapiens, UniProt Q15569)
TESK1, sequence (Q15569 whole entry): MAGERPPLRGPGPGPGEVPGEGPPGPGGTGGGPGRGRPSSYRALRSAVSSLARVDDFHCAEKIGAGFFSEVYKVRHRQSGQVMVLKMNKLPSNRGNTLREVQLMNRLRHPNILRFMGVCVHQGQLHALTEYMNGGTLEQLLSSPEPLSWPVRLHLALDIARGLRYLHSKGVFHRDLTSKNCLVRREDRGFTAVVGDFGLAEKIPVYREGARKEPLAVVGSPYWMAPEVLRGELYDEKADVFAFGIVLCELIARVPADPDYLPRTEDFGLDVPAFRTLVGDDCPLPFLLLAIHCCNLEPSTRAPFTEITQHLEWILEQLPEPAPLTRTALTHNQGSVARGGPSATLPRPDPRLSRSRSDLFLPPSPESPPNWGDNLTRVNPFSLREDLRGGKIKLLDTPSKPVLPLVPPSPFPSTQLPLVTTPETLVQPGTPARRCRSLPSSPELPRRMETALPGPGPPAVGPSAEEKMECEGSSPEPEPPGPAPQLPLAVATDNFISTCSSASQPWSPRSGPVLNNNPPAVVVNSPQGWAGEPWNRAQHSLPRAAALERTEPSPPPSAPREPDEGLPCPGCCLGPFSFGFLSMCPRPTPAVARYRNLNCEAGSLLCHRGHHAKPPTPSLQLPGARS
Method: as §1

[1] = 1 h, 1 μM WEL028, 1 h preincubation

C#CCOc1ccc(Nc2ncc(Cl)c(Nc3ccccc3NC(=O)C=C)n2)c(OC)c1 [Compound 6]
inhibition at 1 µM (DYRK2; [1]): 7% | Inhibition at 1 µM (%) (DYRK2): 11% | Inhibition at 1 µM (%) (DYRK2; listed as WEL028, 1 µM): 4% | inhibition at 1 µM (MAPK15 (ERK7); [1]): 5% | Inhibition at 1 µM (%) (MAPK15 (ERK7); MAPK15 (ERK7), 1 µM, LanthaScreen Binding, listed as WEL028, 1 µM): 4% | inhibition at 1 µM (MAPK15 (ERK7); read-out: Inhibition at 1 µM (%), MAPK15 (ERK7), 1 µM, LanthaScreen Binding): 7% | inhibition at 1 µM (PKN2 (PRK2); [1]): 8% | Inhibition at 1 µM (%) (PKN2 (PRK2); PKN2 (PRK2), 1 µM, LanthaScreen Binding, listed as WEL028, 1 µM): 9% | inhibition at 1 µM (PKN2 (PRK2); read-out: Inhibition at 1 µM (%), PKN2 (PRK2), 1 µM, LanthaScreen Binding): 6% | Inhibition at 1 µM (%) (PRKD2 (PKD2)): 2% | Inhibition at 1 µM (%) (PRKD2 (PKD2); listed as WEL028, 1 µM): 5% | inhibition at 1 µM (PRKD2 (PKD2); [1]): 3% | Inhibition at 1 µM (%) (TESK1; 1 µM, LanthaScreen Binding, listed as WEL028, 1 µM): 9% | inhibition at 1 µM (TESK1; [1]): 10% | inhibition at 1 µM (TESK1; read-out: Inhibition at 1 µM (%), 1 µM, LanthaScreen Binding): 10%
